How the values were obtained:
[1] = In vitro skin S9 metabolic stability assay (human); type: in vitro ADME; conditions: human skin S9 sub-fraction, pH 7.4, 1.0 mg/mL protein, 1 mM NADPH, read-out: Half-Life; for half-life at 0.2 μM: Human skin S9, 0.2 μM; for half-life at 2 μM: Human skin S9, 2 μM
Description: (§1) Assay 6: In Vitro Skin S9 Metabolic Stability Assay
(§2) The objective of this assay was to assess the metabolic stability of compounds in human and mouse skin S9 sub-fraction. Human and mouse skin S9 sub-fractions obtained from Bioreclamation-IVT (Baltimore, Md.) were thawed on ice and diluted into 0.1M potassium phosphate buffer pH 7.4 to yield final incubation protein concentrations of 1.0 mg/mL. Test compounds (10 mM) were diluted into phosphate buffer to yield final incubation concentrations of 0.2 μM and 2.0 μM. Incubations were conducted at 37° C. temperature following addition of 1 mM NADPH and test aliquots were taken at time points 0, 5, 10, 20, 30 and 45 minutes. Each aliquot was crashed into water with 3% formic acid and 1 μM internal standard. The resulting samples were injected onto an LC-MS/MS system for analysis.
(§3) For each incubation, the peak area of the analytes in each t0 aliquot was set to 100% and the peak areas from subsequent time point aliquots were converted to percentage of parent compound remaining relative to t0. The percentage of parent compound remaining at each time point was converted to natural log scale and plotted versus time in minutes to determine a disappearance half-life.

[2] = In vitro skin S9 metabolic stability assay (mouse); type: in vitro ADME; conditions: mouse skin S9 sub-fraction, pH 7.4, 1.0 mg/mL protein, 1 mM NADPH, read-out: Half-Life; for half-life at 0.2 μM: Mouse skin S9, 0.2 μM; for half-life at 2 μM: Mouse skin S9, 2 μM
Description: as §1, §2, §3

Structure (SMILES)	half-life at 0.2 μM [1]	half-life at 2 μM [1]	half-life at 0.2 μM [2]	half-life at 2 μM [2]
CCOc1ccc2ccc(=O)oc2c1 [7-Ethoxycoumarin, reference compound]	> 30 min	> 30 min	> 30 min	> 30 min
CC(Cc1cccc(C(F)(F)F)c1)NCCOC(=O)c1ccccc1 (centres unmarked) [Benfluorex, reference compound]	< 15 min	< 15 min	< 15 min	< 15 min
